Tests used:
[1] = system: Bletilla striata; assay: Growth and bulb formation of Bletilla striata seedlings in tissue culture; type: in vivo
Procedure: Seedling plants of Bletilla striata obtained by sterile sowing were used in an experiment.
As for the Bletilla striata, by using ½ strength MS medium supplemented with D-psicose, D-allose, D-glucose or D-frucose at a concentration of from 0.005% to 0.05% (w/v), the seedling plants were aseptically transplanted on Feb. 27, 2003, and then, cultivation was carried out under the same conditions as those of the strawberry in Example 3. Then, on Jun. 30, 2003, a survey was carried out with regard to the growth conditions of aerial part and underground part, the number of buds, the ratio of bulb formation, the bulb size and the like.

[2] = system: Salsola komarovii; assay: Seed germination, short-time and continuous treatment (Experiment 2); type: in vivo; conditions: immersed in 1% solution for 24 hours, in the end; DW 28%
Procedure: In order to clarify an effect of a short-time treatment, 50 seeds of Salsola komarovii, tomato (Home Momotaro) and sunny lettuce (Red Wave), and 20 seeds of morning glory (Tairin Zaki Kongo) were immersed in any of deionized water, 1% D-psicose, 1% D-allose and 1% L-galactose for 24 hours (25° C., dark), respectively, then, they were lightly washed with deionized water. Then, the seeds were sown in a dish with a diameter of 9 cm having a filter paper placed therein, and germinated under the same condition by poring 5 to 10 ml of deionized water therein. Further, for the comparison, a continuous treatment with 1% D-psicose was carried out in accordance with the same procedure.

[3] = system: Fusarium oxysporum, Glomerella cingulata, Verticillium dahliae and Botrytlis cinerea; assay: Mycelial elongation of plant pathogenic bacteria on agar with rare sugar; type: cell-based; conditions: 0.05% (w/v) in agar medium, 23° C., 7 days
Procedure: By using as targets, Fusarium oxysporum, Glomerella cingulata, Verticillium dahliae and Botrytlis cinerea, which are typical plant pathogenic bacteria, an effect of a rare sugar on mycelial elongation was examined.
As the test bacterial strains, IFO 31213 strain, IFO 6425 strain, IFO 9765 strain and IFO 9760 strain were used.
After the cultivation, the length of the extending mycelium was measured.

[4] = system: Aspergillus niger, Cladosporium cladosporioides and Penicillium chrysogenum; assay: Mycelial elongation of filamentous fungi on agar with rare sugar; type: cell-based; conditions: 0.05% (w/v) in agar medium, 25° C., 4 days
Procedure: By using as targets, Aspergillus niger, Cladosporium cladosporioides and Penicillium chrysogenum, which are typical filamentous fungi and generally seen in a living environment, an effect of a rare sugar on mycelial elongation was examined.
As the test fungal strains, NBRC 4066 strain, NBRC 4459 strain and NBRC 4626 strain were used.
Each test fungal strain was cultured on a potato dextrose agar medium at 25° C. for 7 days, and one in which the mycelium extended over the surface of the dish was pushed out along with the agar medium in such a manner that the agar medium was in a disc form with a diameter of 1.1 cm, which was placed at the center of a dish filled with an agar medium (1% Bacto agar) supplemented with any of a variety of rare sugars (allitol, D-altrose, L-mannose, L-galactose, D-tagatose, D-sorbose, D-psicose, D-allose, D-glucose and D-fructose) at 0.05% (w/v) and cultured at 25° C. for 4 days. After the cultivation, the length of the mycelium extending on the surface of the culture medium was measured. Two culture media were prepared for each test plot, and the mycelial length represents the average thereof.

[5] = system: strawberry plant (variety: “smile ruby”); assay: Growth of strawberry seedlings in tissue culture medium with sugar; type: in vivo; conditions: increased (high) concentration in medium
[6] = system: seeds of vegetables, ornamental plants, herbs, fruit trees, grains and feed crops; assay: Seed germination, continuous treatment (Experiment 1); type: in vivo; conditions: for germination: 1% continuous
Text: Seeds of vegetables (11 families and 51 species or varieties); ornamental plants (19 families and 47 species or varieties); […] (4 families and 14 species or varieties); fruit trees (3 families and 3 species or varieties); grains (1 family and 3 species or varieties); and feed crops (1 family and 3 species or varieties) were continuously treated with any of 4 types of solutions of deionized water (control), 1% D-fructose, 1% D-psicose and 0.5% D-fructose+0.5% D-psicose and germinated under the condition of 25° C., 35 μmol·m^−2·s^−1, and 16-hour lighting or 16-hour dark. As for the number of seeds, 50 seeds were used for each solution basically, and when the number of seeds was small, the seeds were distributed in such a manner that the number of seeds for each solution became equal. The seeds were sown in a dish with a diameter of 9 cm having a filter paper placed therein or when the seeds were large, they were sown in a styrol container with a diameter of 10 cm and a height of 45 mm. Then, 10 ml or 50 ml of any of the solutions was poured therein, and deionized water was suitably added depending on the transpiration.

Structure (SMILES)	Aerial part weight ([1]; sugar 0.005% in medium) [g]	Bulb size ([1]; sugar 0.005% in medium) [mm]	Maximum plant length ([1]; sugar 0.005% in medium) [cm]	Maximum root length ([1]; sugar 0.005% in medium) [cm]	Number of buds ([1]; sugar 0.005% in medium)	Number of leaves ([1]; sugar 0.005% in medium)	Ratio of bulb formation ([1]; sugar 0.005% in medium) [%]	Underground part weight ([1]; sugar 0.005% in medium) [g]	Aerial part weight ([1]; sugar 0.02% in medium) [g]	Bulb size ([1]; sugar 0.02% in medium) [mm]	Maximum plant length ([1]; sugar 0.02% in medium) [cm]	Maximum root length ([1]; sugar 0.02% in medium) [cm]	Number of buds ([1]; sugar 0.02% in medium)	Number of leaves ([1]; sugar 0.02% in medium)	Ratio of bulb formation ([1]; sugar 0.02% in medium) [%]	Underground part weight ([1]; sugar 0.02% in medium) [g]	Aerial part weight ([1]; sugar 0.05% in medium) [g]	Bulb size ([1]; sugar 0.05% in medium) [mm]	Maximum plant length ([1]; sugar 0.05% in medium) [cm]	Maximum root length ([1]; sugar 0.05% in medium) [cm]	further results
O=C[C@H](O)[C@H](O)[C@H](O)[C@H](O)CO [D-allose]	0.19	4.5	7.6	4.2	3.4	4.2	84	0.10	0.19	4.2	7.5	4.1	3.6	3.9	85	0.12	0.25	4.9	7.7	4.2	growth when the concentration added to the medium was increased ([1]; increased (high) concentration in medium): the growth thereof was delayed; Number of buds ([1]; sugar 0.05% in medium): 2.7; Number of leaves ([1]; sugar 0.05% in medium): 4.3; Ratio of bulb formation ([1]; sugar 0.05% in medium): 85%; Underground part weight ([1]; sugar 0.05% in medium): 0.12 g; germination rate [2]: 16%; inhibitory effect on mycelial elongation [3]: has an effect on inhibiting mycelial elongation; effect on mycelial elongation [4]: have an effect of inhibiting mycelial elongation; growth when the concentration added to the medium was increased [5]: the growth thereof was delayed
O=C(CO)[C@@H](O)[C@H](O)[C@H](O)CO [D-fructose, reference compound]	0.16	5.2	6.5	4.6	3.7	3.5	44	0.15	0.19	4.5	6.6	5.1	3.3	4.6	67	0.14	0.19	4.7	7.3	4.1	Number of buds ([1]; sugar 0.05% in medium): 3.3; Number of leaves ([1]; sugar 0.05% in medium): 4.0; Ratio of bulb formation ([1]; sugar 0.05% in medium): 69%; Underground part weight ([1]; sugar 0.05% in medium): 0.10 g; effect on inhibition of germination by D-psicose ([6]; 0.5% D-fructose+0.5% D-psicose, 32 species listed): Mitigated; germination ([6]; 41 species listed): Inhibited; germination ([6]; Lemon Balm and Green Pea (2 species)): Promoted

From patent US8017828B2, “Utilization of rare sugars in plant or microorganism” (Shikoku Research Institute Incorporated, priority 2004, dated 2011)
